# Like-named read-outs stand apart in the source and are kept apart here. Where a SMILES comes first, the peptide text is derived from it. Bridges are numbered along the chain shown (N, C = ends).
# Tests used:
# KLK4 [1] = target: T1, KLK4 (Homo sapiens, UniProt Q9Y5K2); assay: biochemical
# Procedure: (§3) Increasing concentrations of inhibitors were incubated with various concentration of protease (final concentrations: KLK4, 1.5 nM; KLK12, 15 nM; KLK14, 2 nM; trypsin, 1 nM; matriptase, 4 nM; thrombin, 25 nM; α-chymotrypsin 25 nM) for 20 min in 200 µl assay buffer (100 mM Tris-HCl, 100 mM NaCl2, 0.005% triton-X, pH 8.0). Assays with thrombin and trypsin included 10 mM CaCl2. Enzyme activity was initiated by addition of substrate in 100 µl assay buffer (final concentration 100 µM; see Table 2). The rate of hydrolysis was measured at 405 nm over 7 min and was linear over this period. […] For SFTI-FCQR Asp14, K i was determined by inhibition at various substrate concentrations using the competitive inhibition model and non-linear regression in Prism 5 (GraphPad Software Inc). The K i for this inhibitor was also determined using the Morrison equation for tight binding inhibitors [43] (FVQR-pNA K M = 679.9±113.1 µM [16]) and non-linear regression in Prism 5. […] The k on and k off were determined from the lag phases and steady state of inhibition as previously described [44] using assay conditions as above and 500 µM substrate.
# KLK14 [2] = target: T2, KLK14 (Homo sapiens, UniProt Q9P0G3); assay: Amidolytic inhibition assay of KLK14 with pNA substrate; assay type: biochemical
# T2 construct: polyhistidine (C); made in house; host or cells: Sf9 insect cells
# T2 sequence (Q9P0G3 25-251): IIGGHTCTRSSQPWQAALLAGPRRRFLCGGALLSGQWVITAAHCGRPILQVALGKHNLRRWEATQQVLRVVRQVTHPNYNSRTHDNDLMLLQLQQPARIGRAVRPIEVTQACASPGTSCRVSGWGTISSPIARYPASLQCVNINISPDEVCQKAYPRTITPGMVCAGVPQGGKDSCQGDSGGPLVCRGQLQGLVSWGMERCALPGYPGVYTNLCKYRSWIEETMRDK
# Procedure: (§1) Assays with thrombin and trypsin included 10 mM CaCl2. […] Proteolysis fragments were separated on 10% polyacrylamide gels.
# [3] = Bioavailability / serum levels in mice by LC-MS; assay type: in vivo; conditions: 3 mg/kg
# Procedure: Stability and bioavailability of SFTI-FCQR Asn14 in vivo was assessed in BALB/cFoxn1/Arc mice by oral, intravenous and intraperitoneal delivery (3 mg/kg). Inhibitor was dissolved in PBS at a concentration of 0.6 mg/ml prior to dosing. Serum levels of SFTI-FCQR Asn14 were subsequently measured by Liquid Chromatography-Mass Spectrometry (LC-MS) at Tetra Q laboratories (University of Queensland, Brisbane, Australia). This study was carried out in strict accordance to the recommendations of the Australian Code of Practice for the Care and Use of Animals for Scientific purposes (7th edition 2004) and the protocol was approved by the University of Queensland Animal Ethics Committee (ABS group) which assigned the project approval code TetraQ/479/09/Bluebox. All efforts were made to minimize suffering by experimental animals.
# α-chymotrypsin = target: T3, α-chymotrypsin (Bos taurus, UniProt P00766); assay: Amidolytic inhibition assay of α-chymotrypsin; assay type: biochemical, bovine
# T3 construct: Bovine β-trypsin, bovine α-chymotrypsin and human thrombin were obtained from Sigma; purchased Sigma
# Procedure: as §1
# Thrombin [4] = target: T4, Thrombin (Homo sapiens, UniProt P00734); assay: Amidolytic inhibition assay of thrombin; assay type: biochemical
# T4 construct: Bovine β-trypsin, bovine α-chymotrypsin and human thrombin were obtained from Sigma; purchased Sigma
# Procedure: as §1
# [5] = Stability of SFTI variants in culture with prostate cancer cells; assay type: in vitro ADME; conditions: human; 1 µM inhibitor in serum-containing media on LNCaP, 22Rv1 and PC3 monolayers; residual KLK4 inhibition; read-out: half-life in cell culture
# Procedure: (§2) The half-life in cell culture for SFTI-FCQR Asn14 and SFTI-FCQR Lys14 was determined using previously described methods. Briefly, monolayers of LNCaP, 22Rv1 and PC3 cells were established in RPMI 1640 medium supplemented with 10% foetal calf serum (HyClone), 100 U/ml penicillin (Invitrogen) and 100 µg/ml streptomycin (Invitrogen). Cells were treated ±1 µM inhibitor (SFTI-FCQR Asn14 or SFTI-FCQR Lys14) in fresh serum-containing media. Samples of media were taken at 24 hr intervals and boiled at 97°C for 15 min to denature serum protein. Residual inhibition by SFTI-FCQR variants was determined in competitive kinetic assays (as above), adding a volume of media to give 10 nM SFTI-FCQR Asn14 or 25 nM SFTI-FCQR Lys14 at 0 hr. Media without inhibitor was used to adjust for any endogenous media inhibition and data represent the mean ± SEM of three triplicate experiments.
# KLK12 = target: T5, KLK12 (Homo sapiens, UniProt Q9UKR0); assay: Inhibition of fibrinogen proteolysis by KLK12 (SDS-PAGE); assay type: biochemical; conditions: up to 10,000 nM inhibitor; 7 µM fibrinogen, 180 min
# T5 construct: purchased R&D Systems
# T5 sequence (Q9UKR0 18-248): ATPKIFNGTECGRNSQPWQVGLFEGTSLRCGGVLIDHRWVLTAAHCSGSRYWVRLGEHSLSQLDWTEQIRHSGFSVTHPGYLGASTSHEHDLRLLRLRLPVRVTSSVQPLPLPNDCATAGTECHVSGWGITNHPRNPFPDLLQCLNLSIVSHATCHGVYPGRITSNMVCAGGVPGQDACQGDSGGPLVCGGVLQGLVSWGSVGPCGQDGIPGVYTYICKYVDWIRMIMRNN
# Procedure: as §1
# KLK4 [6] = target: T1, KLK4; assay: Inhibition of fibrinogen proteolysis by KLK4 (SDS-PAGE); assay type: biochemical; parameters: polyhistidine (C); made in house; host or cells: Sf9 insect cells; conditions: 7 µM fibrinogen, 90 min
# Procedure: as §1
# Matriptase = target: T6, Matriptase (Homo sapiens, UniProt Q9Y5Y6); assay: Amidolytic inhibition assay of matriptase; assay type: biochemical
# T6 construct: purchased R&D Systems
# T6 sequence (Q9Y5Y6 615-855 limits assumed): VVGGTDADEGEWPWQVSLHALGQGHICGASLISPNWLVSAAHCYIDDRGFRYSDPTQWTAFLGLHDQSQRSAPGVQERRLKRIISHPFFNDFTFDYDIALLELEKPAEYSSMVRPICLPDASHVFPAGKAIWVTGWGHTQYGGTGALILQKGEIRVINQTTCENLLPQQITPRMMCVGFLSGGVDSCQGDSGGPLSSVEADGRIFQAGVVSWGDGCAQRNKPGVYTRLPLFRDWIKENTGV
# Procedure: as §1
# KLK4 [7] = target: T1, KLK4
# Procedure: as §3
# β-Trypsin = target: T7, β-Trypsin (Bos taurus, UniProt P00760); assay: Amidolytic inhibition assay of β-trypsin; assay type: biochemical, bovine
# T7 construct: Bovine β-trypsin, bovine α-chymotrypsin and human thrombin were obtained from Sigma; purchased Sigma
# T7 sequence (P00760 24-246): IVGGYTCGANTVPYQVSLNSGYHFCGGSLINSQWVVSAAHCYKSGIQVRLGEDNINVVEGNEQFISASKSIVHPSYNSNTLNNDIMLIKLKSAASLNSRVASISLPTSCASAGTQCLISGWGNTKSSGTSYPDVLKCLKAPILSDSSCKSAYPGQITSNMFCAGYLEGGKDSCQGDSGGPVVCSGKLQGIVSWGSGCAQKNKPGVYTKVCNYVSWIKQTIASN
# Procedure: as §1
# trypsin = target: T8, trypsin (Bos taurus, UniProt P00760); assay: Inhibition of fibrinogen proteolysis by trypsin (SDS-PAGE); assay type: biochemical, bovine; conditions: up to 10,000 nM inhibitor; 7 µM fibrinogen, 15 min
# T8 construct: Bovine β-trypsin, bovine α-chymotrypsin and human thrombin were obtained from Sigma; purchased Sigma
# T8 sequence (P00760 24-246): T7 sequence (P00760 24-246)
# Procedure: as §1
# KLK14 [8] = target: T2, KLK14; assay: Inhibition of fibrinogen proteolysis by KLK14 (SDS-PAGE); assay type: biochemical; conditions: up to 10,000 nM inhibitor; 7 µM fibrinogen, 90 min
# Procedure: as §1
# Thrombin [9] = target: T4, Thrombin; parameters: method as in PMID 11549459; conditions: substrate N-t-Boc-LRR-AMC; cited from earlier work
# [10] = tested on: LNCaP, 22Rv1 and PC3 cells; parameters: method as in PMID 19549601; conditions: cited from earlier work
# KLK4 [11] = target: T1, KLK4; assay: in vitro; conditions: recombinant KLK4 (isolated protease), pH 8
# Procedure: as §3
# [12] = tested on: LNCaP, 22Rv1 and PC3 cells; assay: Stability of SFTI variants in culture with prostate cancer cells; assay type: in vitro ADME; conditions: 1 µM inhibitor in serum-containing media on prostate cancer cells; residual KLK4 inhibition
# Procedure: as §2
# [13] = relative to SFTI-FCQR Asp14 (Table 2)
# T1 sequence (Q9Y5K2 31-254): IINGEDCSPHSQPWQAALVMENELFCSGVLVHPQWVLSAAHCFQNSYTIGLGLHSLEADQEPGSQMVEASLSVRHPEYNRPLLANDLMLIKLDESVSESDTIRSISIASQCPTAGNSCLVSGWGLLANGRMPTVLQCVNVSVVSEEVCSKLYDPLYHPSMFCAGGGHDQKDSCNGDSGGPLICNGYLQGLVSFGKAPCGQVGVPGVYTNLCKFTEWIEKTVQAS
compound,measurement,setting,value
CC[C@H](C)[C@@H]1NC(=O)[C@@H]2CCCN2C(=O)[C@@H]2CCCN2C(=O)[C@H]([C@@H](C)CC)NC(=O)[C@H](CO)NC(=O)[C@H](CCCNC(=N)N)NC(=O)[C@H](CCC(N)=O)NC(=O)[C@@H]2CSSC[C@H](NC1=O)C(=O)N[C@@H](Cc1ccccc1)C(=O)N1CCC[C@H]1C(=O)N[C@@H](C)C(=O)NCC(=O)N[C@@H](Cc1ccccc1)C(=O)N2 [SFTI-FCQR Ala14] (cyclo(GFCQRSIPPICFPA); disulfide 3-11),IC50,KLK4 [1],26.2 ± 0.85 nM
same,Ki,KLK4 [1],18.3 ± 3.36 nM
CC[C@H](C)[C@@H]1NC(=O)[C@@H]2CCCN2C(=O)[C@@H]2CCCN2C(=O)[C@H]([C@@H](C)CC)NC(=O)[C@H](CO)NC(=O)[C@H](CCCNC(=N)N)NC(=O)[C@H](CCC(N)=O)NC(=O)[C@@H]2CSSC[C@H](NC1=O)C(=O)N[C@@H](Cc1ccccc1)C(=O)N1CCC[C@H]1C(=O)NCC(=O)NCC(=O)N[C@@H](Cc1ccccc1)C(=O)N2 [SFTI-FCQR Gly14] (cyclo(GFCQRSIPPICFPG); disulfide 3-11),IC50,KLK4 [1],14.7 ± 1.09 nM
same,Ki,KLK4 [1],10.4 ± 2.87 nM
CC[C@H](C)[C@@H]1NC(=O)[C@@H]2CCCN2C(=O)[C@@H]2CCCN2C(=O)[C@H]([C@@H](C)CC)NC(=O)[C@H](CO)NC(=O)[C@H](CCCNC(=N)N)NC(=O)[C@H](CCC(N)=O)NC(=O)[C@@H]2CSSC[C@H](NC1=O)C(=O)N[C@@H](Cc1ccccc1)C(=O)N1CCC[C@H]1C(=O)N[C@@H](CC(N)=O)C(=O)NCC(=O)N[C@@H](Cc1ccccc1)C(=O)N2 [SFTI-FCQR Asn14] (cyclo(GFCQRSIPPICFPN); disulfide 3-11),relative increase in KLK14 inhibition compared to SFTI-FCQR Asp14,KLK14 [2]; [13],six-fold
same,IC50,"KLK14 [2]; substrate Ac-GSLR-pNA 100 µM, KLK14 2 nM",251 ± 21.9 nM
same,half-life,"[3]; BALB/cFoxn1/Arc, mouse, serum, IV and IP",25 to 28 min
same,level at time molar at 4 h,"[3]; BALB/cFoxn1/Arc, mouse, serum, IV and IP, irrespective of delivery route, read-out: residual inhibitor concentration in serum after 4 hours",10 ± 0.8 nM
same,serum levels after oral delivery,"[3]; oral, LC-MS",did not result in detectable levels of inhibitor in serum
same,inhibition of α-chymotrypsin,"α-chymotrypsin; at 10,000 nM inhibitor",no inhibition
same,IC50,"α-chymotrypsin; substrate WpNA 100 µM, α-chymotrypsin 25 nM",> 10000 nM
same,inhibition of thrombin,"Thrombin [4]; at 10,000 nM inhibitor",no inhibition
same,IC50,"Thrombin [4]; substrate Bz-FVRpNA 100 µM, thrombin 25 nM, 10 mM CaCl2",> 10000 nM
same,half-life at 1 µM,[5],55 to 70 h
same,inhibition of KLK12 fibrinogen proteolysis,KLK12,No inhibition
same,Ki,KLK4 [1],0.0386 ± 0.006 nM
same,lowest inhibitor concentration blocking KLK4 proteolysis of fibrinogen,KLK4 [6],62.5 nM
same,inhibition of matriptase,"Matriptase; at 10,000 nM inhibitor",no inhibition
same,IC50,"Matriptase; substrate Bz-FVRpNA 100 µM, matriptase 4 nM",> 10000 nM
same,calculated second order rate constant (k off/K i),KLK4 [7]; calculated from k off and K i,8.03e+08 M⁻¹ s⁻¹
same,fold improvement in KLK4 inhibition compared to SFTI-FCQR Asp14,KLK4 [7]; [13],125 fold
same,IC50,"KLK4 [7]; substrate FVQRpNA 100 µM, KLK4 1.5 nM, 20 min preincubation (SFTI-FCQR Asn14: 0.15 nM KLK4 over 2 hr; Lys14 assayed immediately after addition)",0.0635 ± 0.0024 nM
same,relative increase in trypsin inhibition compared to SFTI-FCQR Asp14,β-Trypsin; [13],two-fold
same,IC50,"β-Trypsin; substrate BAPNA 100 µM, trypsin 1 nM, 10 mM CaCl2",2180 ± 145 nM
same,inhibition of trypsin fibrinogen proteolysis,trypsin,No inhibition
same,inhibition of KLK14 fibrinogen proteolysis,KLK14 [8],No inhibition
SFTI-1: 1.4 kDa cyclic Bowman-Birk serine protease inhibitor isolated from sunflower (Helianthus annuus) seeds,Ki,Thrombin [9],5050 nM
CC[C@H](C)[C@@H]1NC(=O)[C@@H]2CCCN2C(=O)[C@@H]2CCCN2C(=O)[C@H]([C@@H](C)CC)NC(=O)[C@H](CO)NC(=O)[C@H](CCCNC(=N)N)NC(=O)[C@H](CCC(N)=O)NC(=O)[C@@H]2CSSC[C@H](NC1=O)C(=O)N[C@@H](Cc1ccccc1)C(=O)N1CCC[C@H]1C(=O)N[C@@H](CC(=O)O)C(=O)NCC(=O)N[C@@H](Cc1ccccc1)C(=O)N2 [SFTI-FCQR Asp14] (cyclo(GFCQRSIPPICFPD); disulfide 3-11),stability in culture with prostate cancer cells,[10],highly resistant to breakdown
same,Ki,KLK4 [1],3.89 ± 0.4 nM
same,lowest inhibitor concentration blocking KLK4 proteolysis of fibrinogen,KLK4 [6],250 nM
same,Ki,"KLK4 [7]; competitive inhibition model, various substrate concentrations, FVQRpNA",3.62 ± 0.26 nM
CC[C@H](C)[C@@H]1NC(=O)[C@@H]2CCCN2C(=O)[C@@H]2CCCN2C(=O)[C@H]([C@@H](C)CC)NC(=O)[C@H](CO)NC(=O)[C@H](CCCNC(=N)N)NC(=O)[C@H](CCC(N)=O)NC(=O)[C@@H]2CSSC[C@H](NC1=O)C(=O)N[C@@H](Cc1ccccc1)C(=O)N1CCC[C@H]1C(=O)N[C@@H](CO)C(=O)NCC(=O)N[C@@H](Cc1ccccc1)C(=O)N2 [SFTI-FCQR Ser14] (cyclo(GFCQRSIPPICFPS); disulfide 3-11),IC50,KLK4 [1],29.2 ± 1.08 nM
same,Ki,KLK4 [1],21.2 ± 3.81 nM
CC[C@H](C)[C@@H]1NC(=O)[C@@H]2CCCN2C(=O)[C@@H]2CCCN2C(=O)[C@H]([C@@H](C)CC)NC(=O)[C@H](CO)NC(=O)[C@H](CCCNC(=N)N)NC(=O)[C@H](CCC(N)=O)NC(=O)[C@@H]2CSSC[C@H](NC1=O)C(=O)N[C@@H](Cc1ccccc1)C(=O)N1CCC[C@H]1C(=O)N[C@@H](CCCCN)C(=O)NCC(=O)N[C@@H](Cc1ccccc1)C(=O)N2 [SFTI-FCQR Lys14] (cyclo(GFCQRSIPPICFPK); disulfide 3-11),half-life,KLK4 [11],56.3 ± 6.2 min
same,initial activity lost within the first 24 hr in cell culture,[12],two-thirds
same,IC50,KLK4 [1],6.07 ± 0.13 nM
same,Ki,KLK4 [1],3.56 ± 0.27 nM
